{"source": "paper PMC6880192", "about": "“Structure–Effect Relationships of Novel Semi-Synthetic Cannabinoid Derivatives” (Frontiers in Pharmacology, 2019)", "key": {"CB1-/CB2-receptors": {"test_system": "CB1-/CB2-receptors", "parameters": "method as in Rosenthaler et al. 2014", "settings": "ref Rosenthaler et al. 2014; cited from earlier work"}, "RAW264.7 macrophages": {"test_system": "RAW264.7 macrophages", "assay": "MTT cytotoxicity assay", "type": "cell-based", "settings": "RAW264.7, concentrations of 5 and 10 µmol/L", "text": "Cytotoxicity tests were done on CHO cells, Jurkat T-cells, or RAW264.7 macrophages using the MTT assay (Sigma-Aldrich, St. Louis) and on primary human monocytes with the alamarBlue assay (Thermo Fisher Scientific, Karlsruhe)."}, "primary human monocytes": {"test_system": "primary human monocytes", "assay": "Anti-inflammatory effect on LPS-treated monocytes (ELISA)", "type": "cell-based", "settings": "LPS 10 ng/ml, 24 h", "procedure": "Human peripheral blood monocytes were prepared from healthy donors who provided written informed consent at the local blood bank (University Hospital of Freiburg, Germany). Mononuclear cells were isolated by density gradient centrifugation according to standard protocol ([English and Andersen, 1974]) using lymphocyte separation medium, (PAN Biotech, Aidenbach). Cells were resuspended in RPMI-1640 medium (Invitrogen/Thermo Fisher Scientific, Karlsruhe) containing 10% human serum (Hexacell, Berlin). About 5 × 10^5 cells per milliliter were seeded in 24-well plates and incubated at 37°C and 5% CO2. The medium and the non-adherent cells were removed by washing with PBS and fresh RPMI medium, and 1% human serum was added to each well.\nTo test the anti-inflammatory effect of the test compounds, monocytes were incubated for 30 min with increasing doses of the test compounds. Then lipopolysaccharide (LPS) (10 ng/ml; Escherichia coli, Sigma-Aldrich, St. Louis) was added followed by a 24 h incubation period. The supernatants were removed and the levels of IL-1β, IL-6, IL-8, TNF-α, and prostaglandin E2 (PGE2) determined by enzyme-linked immunosorbent assay (ELISA) performed according to the manufacturer’s instructions (IL-1β from Hiss, Freiburg; IL-6, IL-8, and TNF-α from ImmunoTools, Friesoythe; and PGE2 from Cayman, distributed by Biozol, Hamburg). Stimulation with LPS alone was considered 100%."}, "CB2-receptor [1]": {"target": "T1, CB2-receptor (Homo sapiens, UniProt P34972)", "T1 construct": "expressed in transfected cells; host or cells: CHO cells, stably transfected with CB2 cDNA (from IMIBIC) and transiently with CRE-luc", "T1 sequence (P34972 whole entry)": "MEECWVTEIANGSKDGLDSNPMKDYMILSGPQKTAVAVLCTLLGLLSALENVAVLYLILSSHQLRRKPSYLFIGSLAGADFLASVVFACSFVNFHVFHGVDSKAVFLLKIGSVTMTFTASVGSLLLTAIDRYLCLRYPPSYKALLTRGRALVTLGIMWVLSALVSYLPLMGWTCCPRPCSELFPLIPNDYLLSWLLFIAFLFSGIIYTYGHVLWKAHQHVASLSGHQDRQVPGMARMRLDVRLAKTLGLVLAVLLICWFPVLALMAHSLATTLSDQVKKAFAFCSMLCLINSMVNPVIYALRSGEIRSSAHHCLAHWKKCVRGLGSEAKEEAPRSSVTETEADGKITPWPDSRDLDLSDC", "assay": "cAMP-dependent luciferase assay in CHO-CB2-CRE-luc cells", "type": "cell-based", "procedure": "(§1) Briefly, CHO cells were stably transfected with CB1- and CB2-receptor complementary DNAs (cDNAs) (kindly provided by IMIBIC). Around 10^5 transfected cells per milliliter were seeded in 24-well plates and transiently transfected with the plasmid CRE-luc using Roti-Fect (Carl Roth, Karlsruhe) following the manufacturer’s instructions. The cells were harvested after 24 h. Two transfected cell types resulted: CHO-CB1-CRE-luc and CHO-CB2-CRE-luc.\n(§2) To test for agonistic activity at the CB1-receptor, the CHO-CB1-CRE-luc cells were stimulated for 6 h with increasing concentrations of the test compounds ([Bouaboula et al. 1997]). Forskolin (FSK), a strong CB-receptor-independent activator of adenylyl-cyclase was used at 10 µmol/L as a positive control. To investigate the antagonistic activity, the CHO-CB1-CRE-luc cells were pre-incubated for 15 min with the test compounds before stimulation for 6 h with 1 µmol/L WIN ([Zheng et al. 2013]). To investigate CB2-receptor agonistic activity, CHO-CB2-CRE-luc cells were pre-incubated for 15 min with increasing concentrations of the test substances and then for 6 h with 10 µmol/L FSK. WIN, a non-specific agonist at CB2-receptors, was used as a positive control. To confirm CB2-receptor agonistic activities of the test compounds, CHO-CB2-CRE-luc cells were pre-incubated with the specific CB2-receptor antagonist AM630 (1 µmol/L, 6-iodopravadoline; Cayman, distributed by Biozol, Hamburg) ([Ross et al. 1999]; [Zheng et al. 2013]) and then treated with increasing concentrations of the test substances.\n(§3) After the stimulations and incubations, cells were lysed in a solution of 25 mmol Tris-phosphate (pH = 7.8), 8 mmol MgCl2, 1 mmol dithiothreitol (DTT), 1% Triton X-100, and 7% glycerol. The luciferase activity was measured with a Luciferase Assay Kit (Promega, Madison) according to the manufacturer’s instructions using an AutoLumat LB 9501 (Berthold Technologies, Bad Wildbad)."}, "CB2-receptor [2]": {"target": "T1, CB2-receptor", "assay": "Competition binding against [3H]-CP55940, CB2 membranes", "settings": "ratio of Ki values"}, "NFAT": {"test_system": "NFAT", "assay": "PMA/IO-induced NFAT-luc activation in Jurkat T-cells", "type": "cell-based", "settings": "0.5–25 µmol/L", "procedure": "Jurkat T-cells (10^6 cells per milliliter) were transiently transfected with plasmids that contained an NF-κB-dependent (KBF-luc) or NFAT-dependent (NFAT-luc) promotors fused to the luciferase gene using Lipofectin (Life Technologies, Carlsbad) according to the manufacturer’s instructions ([Yano et al. 1987]; [Durand et al. 1988]). Twenty-four hours after transfection, cells were stimulated for 30 min with increasing doses of the test compounds or WIN as a control (Tocris, Bristol). Then PMA (50 ng/ml)—for NFAT-luc—plus ionomycin (0.5 µg/ml) (Sigma-Aldrich, St. Louis) was added, followed by a 6 h incubation period.\nas §3"}, "CB1-receptor": {"target": "T2, CB1-receptor (Homo sapiens, UniProt P21554)", "T2 construct": "expressed in transfected cells; host or cells: CHO cells, stably transfected with CB1 cDNA (from IMIBIC) and transiently with CRE-luc", "T2 sequence (P21554 whole entry)": "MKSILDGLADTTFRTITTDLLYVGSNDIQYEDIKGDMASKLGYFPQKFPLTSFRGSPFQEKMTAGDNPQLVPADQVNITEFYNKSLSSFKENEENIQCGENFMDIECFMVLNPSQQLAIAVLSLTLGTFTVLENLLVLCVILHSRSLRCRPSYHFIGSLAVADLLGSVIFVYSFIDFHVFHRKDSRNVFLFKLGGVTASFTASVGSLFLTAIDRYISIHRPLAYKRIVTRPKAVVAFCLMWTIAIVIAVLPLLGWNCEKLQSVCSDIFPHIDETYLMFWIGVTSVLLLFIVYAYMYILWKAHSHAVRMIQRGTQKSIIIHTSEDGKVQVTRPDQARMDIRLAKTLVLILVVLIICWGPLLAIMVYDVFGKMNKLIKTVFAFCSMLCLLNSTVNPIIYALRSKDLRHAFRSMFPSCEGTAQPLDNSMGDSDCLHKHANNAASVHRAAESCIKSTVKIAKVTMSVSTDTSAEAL", "assay": "cAMP-dependent luciferase assay in CHO-CB1-CRE-luc cells", "type": "cell-based", "settings": "CHO-CB1-CRE-luc, summary classification", "procedure": "as §1, §2, §3"}}}
{"smiles": "C=C(C)[C@@H]1CCC(C)=C[C@H]1c1c(O)cc(CCC)cc1O", "note": "[CBDV, (-)-trans-cannabidivarin]", "values": [{"measurement": "Affinity for CB1-/CB2-receptors", "setting": "CB1-/CB2-receptors", "value": "poor affinity"}]}
{"smiles": "C=C(C)[C@@H]1CCC(C)=C[C@H]1c1c(O)cc(CCCCC)cc1O", "note": "[CBD, (-)-trans-cannabidiol]", "values": [{"measurement": "Affinity for CB1-/CB2-receptors", "setting": "CB1-/CB2-receptors", "value": "poor affinity"}]}
{"smiles": "C=C(C)[C@@H]1CCC(C)=C[C@H]1c1c(O)cc(CCCCC)c(C(=O)OCCO)c1O", "note": "[2-HEC (1), 2-hydroxyethyl cannabidiolate]", "values": [{"measurement": "Effect on cell viability", "setting": "RAW264.7 macrophages", "value": "negative effect on cell viability"}, {"measurement": "LPS-induced IL-1β release", "setting": "primary human monocytes", "value": "significantly inhibited"}, {"measurement": "LPS-induced IL-6 release", "setting": "primary human monocytes", "value": "significantly inhibited"}, {"measurement": "LPS-induced TNF-α release", "setting": "primary human monocytes", "value": "significantly inhibited"}, {"measurement": "CB2-receptor agonistic activity (fold induction of CRE-luc)", "setting": "CB2-receptor [1]; 15 min pre-incubation, then 10 µmol/L FSK for 6 h", "value": "dose dependency"}, {"measurement": "Effect on CB2", "setting": "CB2-receptor [1]; CHO-CB2-CRE-luc, summary classification", "value": "Agonist"}, {"measurement": "CB2 agonistic effect compared with positive control WIN", "setting": "CB2-receptor [1]; same dose as 1 µmol/L WIN", "value": "as strong as the same dose of the positive control"}, {"measurement": "Selectivity CB2/CB1", "setting": "CB2-receptor [2]", "value": 10.5}, {"measurement": "Inhibition of PMA/IO-induced NFAT activation", "setting": "NFAT", "value": "significantly inhibited"}, {"measurement": "Effect on CB1", "setting": "CB1-receptor", "value": "Antagonist"}]}
